In US7465814B2, “Sulfonate compound and fluorescent probe using the same” (priority 2003, dated 2008):

Experiments:
[1] = tested on: thiophosphorylated protein; test: Fluorescence response to thiophosphorylated protein; type: biochemical
[2] = Fluorescence response to glutathione, quantitativity (FIG. 5); type: biochemical; settings: for detection limit of GSH: probe 200 μL, HEPES pH 7.4, 37° C., 10 minutes; for inclination of calibration curve, GSH: up to 1000 pmol
Procedure: (§1) Quantitativity and the like of each of the compounds 6a and 8a with respect to a mercapto compound were evaluated, by using glutathione (GSH) and cysteine that are kinds of thiol. More specifically, an EtOH solution of the compound 6a (10 mM) was prepared, and it further was diluted by 500-fold with a HEPES buffer solution having a pH of 7.4, thereby preparing a probe solution containing the compound 6a. Next, 200 μL of this probe solution and 10 μL of each of solutions of glutathione or cysteine (dissolved in a HEPES buffer solution having a pH of 7.4) with various concentrations were added into each well of a 96-wellmicroplate, and were allowed to stand still at 37° C. for 10 minutes so as to undergo a reaction. Moreover, a probe solution containing 8a was prepared in the same manner as the preparation of the solution of the compound 6a except using 8a instead of 6a, and this probe solution also was allowed to react with a thiol solution in the same manner as the reaction of the probe solution containing 6a. Then, a fluorescence response of each well was measured after the reaction. The measurement of 6a was conducted at λex=383 nm and λem=500 nm, and the measurement of 8a was conducted at λex=483 nm and λem=515 nm. Herein, λex denotes an excitation wavelength, and λem denotes an emission wavelength.
(§2) FIG. 5A is a graph showing the measurement result of 6a, and FIG. 5B is a graph showing the measurement result of 8a.

[3] = Reaction with other nucleophilic agents instead of thiol; type: biochemical; settings: same conditions as the thiol test
Procedure: Quantitativity and the like of each of the compounds 6a and 8a with respect to a mercapto compound were evaluated, by using glutathione (GSH) and cysteine that are kinds of thiol. […] Moreover, a probe solution containing 8a was prepared in the same manner as the preparation of the solution of the compound 6a except using 8a instead of 6a, and this probe solution also was allowed to react with a thiol solution in the same manner as the reaction of the probe solution containing 6a. Then, a fluorescence response of each well was measured after the reaction. The measurement of 6a was conducted at λex=383 nm and λem=500 nm, and the measurement of 8a was conducted at λex=483 nm and λem=515 nm. Herein, λex denotes an excitation wavelength, and λem denotes an emission wavelength.

[4] = tested on: acetyl cholinesterase (AChE); settings: range from 0.1 μU to 0.5 μU, 37° C., 10 minutes, acetyl thiocholine substrate
Procedure: Firstly, an EtOH solution of the compound 8a (10 mM) was prepared, and it further was diluted by 500-fold with a HEPES buffer solution having a pH of 7.4, thereby preparing a probe solution containing the compound 8a (20 μM). Whereas, a solution (1 mM) was prepared by dissolving commercially available acetyl thiocholine in a HEPES buffer solution having a pH of 7.4. Moreover, acetyl cholinesterase (AChE) solutions (solutions obtained by dissolving acetyl cholinesterase in a HEPES buffer solution having a pH of 7.4) with various concentrations (activity levels) were prepared.
Next, 200 μL of the probe solution, 10 μL of the acetyl thiocholine solution and 10 μL of each of the acetyl cholinesterase (AChE) solutions with various concentrations (activity levels) were added into each well of a 96-wellmicroplate, and underwent an enzyme reaction at 37° C. for 10 minutes. Immediately after the reaction, a fluorescence response of each well was measured at λex (excitation wavelength) of 483 nm and λem (emission wavelength) of 515 nm.

[5] = Reactivity with superoxide and glutathione (FIG. 4); type: biochemical; settings: same conditions as 1-3 Superoxide-selectivity (2)
Procedure: (§3) Moreover, in other conditions than those of the above-described tests, reactivity of all of the compounds 1a to 1d with H2O2, other various kinds of nucleophilic agents, reducing agents and the like also was tested, respectively. More specifically, fluorescent responses of 1a to 1d with respect to a XO-HPX system, a XO-HPX-SOD system, H2O2, ascorbic acid, 1,4-hydroquinone, propylamine, diethylamine, glucose, esterase, a cytochrome P450 reductase+NADPH system, and a diaphorase+NADH system were measured, respectively. Operational processes thereof will be described below. Firstly, 1a to 1d and the above-described reagents were dissolved in HEPES of 10 mM having a pH of 7.4 so as to prepare solutions, respectively. Next, a 96 wellmicroplate was provided, where any of the solutions of 1a to 1d (25 μM, 170 μL) was poured into each of the wells, and furthermore, 30 μL of a blank solution or 30 μL of the solution of the reagent to be reacted therewith was added thereto. Final concentrations of the solutions in the wells were adjusted so that concentrations of the solutions of 1a to 1d respectively could be 21.3 μM, that of XO could be 13.1 mU/mL, those of HPX, H2O2, ascorbic acid, 1,4-hydroquinone, propylamine, diethylamine, glucose, NADPH and NADH respectively could be 50 μM, that of cytochrome P450 reductase could be 68 mU/mL, that of diaphorase could be 65 mU/mL, and that of esterase could be 0.5 U/mL, respectively. Then, after they reacted in the wells at 37° C. for 10 minutes, fluorescent responses were measured respectively. Fluorescence intensity measurement was conducted by using an ETC-272 Peltier thermostatted single cell holder (trade name) manufactured by JASCO Corporation or a SpectraMax GeminiEM fluorescence plate reader (trade name) manufactured by Molecular Devices Corporation provided with a FP-750 spectrofluorometer (trade name) manufactured by JASCO Corporation, and by setting excitation wavelengths and emission wavelengths so that those of 1a, 1b and 1c respectively could be 485 nm and 515 nm, and those of 1d respectively could be 511 nm and 540 nm.
(§4) The reactivity of each of the compounds 1d, 5a, 6a, 7 and 8a with respect to superoxide and glutathione (GSH) that is a kind of thiol was tested under the same conditions as those of [1-3. Superoxide-selectivity (2)] in Example 1. […] A vertical axis thereof denotes a fluorescence intensity, which is represented in % of control.

[6] = Fluorescence response to thiophosphonate group (FIG. 8); type: biochemical
Text: Moreover, a capability of the sulfonate compound of the present invention as a fluorescent probe for mercapto compounds other than thiol (a compound in which a —SH group is bonded to a carbon atom) was examined. […]

[7] = Fluorescence response to cysteine, quantitativity (FIG. 5); type: biochemical; settings: for detection limit of cysteine: probe 200 μL, HEPES pH 7.4, 37° C., 10 minutes; for inclination of calibration curve, cysteine: up to 1000 pmol
Procedure: as §1, §2

[8] = Responses to the compounds listed in Table 1; type: biochemical; settings: same conditions as Example 1
Procedure: as §3, §4

[9] = Capability as superoxide-detecting fluorescent probe (reactivity with superoxide); type: biochemical; settings: tested similarly to the compound 1d
Procedure: Then, by mainly using the compound 1d as a testing compound, the capability thereof as a superoxide-selective fluorescent probe was evaluated, and moreover, a test in a cell system also was conducted. These tests will be described below.
Thus, it is thought that each compound synthesized from a combination of: a phenolic colorant; and a 2,4-dinitrobenzenesulfonyl group, a 4-trifluoromethyl-2-nitrobenzenesulfonyl group or a 4-nitrobenzenesulfonyl group can be used as a superoxide-detecting fluorescent probe similarly. An example of the usage thereof will be shown in Scheme 8 below. Furthermore, it can be expected that a compound for a fluorescent probe having characteristics that are suitable for its application purpose can be designed and developed freely, by designing the compound of the present invention freely within the limitation defined by the general formula (I) and using the fluorescence mechanism developed by the inventors of the present invention, without being limited to the above-described combinations. Examples of the application purpose of the compound of the present invention are varied, including an application to a faintly coloring technique using superoxide.

Structure (SMILES) | fluorescence responses to thiophosphorylated protein with different introduction degrees of the thiophosphonate group [1] | detection limit of GSH [2] [pmol] | inclination of calibration curve, GSH [2] [au/pmol] | fluorescence with other nucleophilic agent instead of thiol [3] | inclination, AChE activity versus fluorescence response [4] [au/μU] | selectivity (specificity), superoxide versus glutathione, FIG. 4 [5] | detection limit of γ-S-ATP ([6]; probe 20 μM 200 μL, imidazole buffer pH 7.4, 37° C., 180 minutes) [pmol] | detection limit of cysteine [7] [pmol] | inclination of calibration curve, cysteine [7] [au/pmol] | response with respect to each of the compounds listed in Table 1 [8] | deprotection by superoxide into the corresponding fluorochrome [9] | response to thiol group in thiophosphonate group ([6]; γ-S-ATP and adenosine monothiophosphate (S-AMP))
O=C(O)c1ccccc1-c1c2ccc(=O)cc-2oc2cc(OS(=O)(=O)c3ccc([N+](=O)[O-])cc3[N+](=O)[O-])ccc12 [Compound 8a] | fluorescence responses corresponding to the respective introduction degrees were obtained | 2 | 4.25 | no fluorescence at all | 28.8 | excellent mercapto compound-selectivity | 5 | 1 | 4.82 | almost no response |  | 
O=c1cc(C(F)(F)F)c2ccc(OS(=O)(=O)c3ccc([N+](=O)[O-])cc3[N+](=O)[O-])cc2o1 [Compound 6a] |  | 7 | 0.37 | no fluorescence at all |  | excellent mercapto compound-selectivity |  | 7 | 0.66 | almost no response | deprotected by superoxide | responded to a thiol group in a so-called thiophosphonate group
